# Experimental data: PubChem BioAssay AID743178 (NMMLSC, 2013)
# Calls of active or inactive are those of the source.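 How the source made its calls: active means percent MAC1 positive of at least 15% at the highest dose, plus EC50 under 10 µM; inactive means the rest.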
# Test system: not listed separately
# Experiment: myeloid differentiation promoters in U937 leukemia cells, SAR follow-up, cell-based, MAC1 flow cytometry, set 1 (AID 743178)
# Details: U937 myeloid differentiation, MAC1 flow cytometry, 4 d; at 10 µM (top of the series)
row,Compound,percent MAC1 positive
1,CC(C)(C)OC(=O)NCCC(=O)N[C@@H]1CCCc2ccccc21,1.18% (inactive)
2,O=C(CNC(=O)c1ccc(C(F)(F)F)cc1)N[C@@H]1CCCc2ccccc21,1.08% (inactive)
3,CC(NC(=O)C1CCCN(C(=O)c2ccc(Cl)cc2)C1)c1ccccc1 (centres undefined),1.23% (inactive)
4,CC(c1ccccc1)N(C)C(=O)CCNC(=O)c1ccc(Cl)cc1 (centres undefined),0.788% (inactive)
5,COc1ccccc1C(C)NC(=O)CCNC(=O)c1ccc(Cl)cc1 (centres undefined),0.779% (inactive)
6,O=C(CCCNC(=O)c1ccc(OC(F)(F)F)cc1)N[C@@H]1CCCc2ccccc21,0.912% (inactive)
7,COc1ccc(C(=O)NCCC(=O)N[C@@H]2CCCc3ccccc32)cc1,28.1% (inactive)
8,O=C(CCCNC(=O)c1ccc(Cl)c(Cl)c1)N[C@@H]1CCCc2ccccc21,1.27% (inactive)
9,O=C(CCNC(=O)c1ccc(Cl)cc1)NC1CCCCC1,1.63% (inactive)
10,O=C(Cc1ccc(Cl)cc1)NCCC(=O)N[C@@H]1CCCc2ccccc21,13.3% (inactive)
11,CC(=O)NCCC(=O)N[C@@H]1CCCc2ccccc21,0.776% (inactive)
12,C[C@@H](NC(=O)CCNC(=O)c1ccc(Cl)cc1)c1ccccc1,1.51% (inactive)
13,O=C(CCCNC(=O)c1ccc(Cl)cc1)N[C@@H]1CCCc2ccccc21,1.04% (inactive)
14,CC(NC(=O)CCNC(=O)c1ccc(Cl)cc1)c1ccc2c(c1)OCO2 (centres undefined),1.17% (inactive)
15,O=C(CCNC(=O)c1ccc(Cl)cc1)N[C@H]1CCCc2ccccc21,2.12% (inactive)
16,CC(C)(C)OC(=O)NCCC(=O)N[C@H]1CCCc2ccccc21,1.16% (inactive)

row,Compound,percent MAC1 positive
1,O=C(CNC(=O)c1ccc(OC(F)(F)F)cc1)N[C@@H]1CCCc2ccccc21,1.56% (inactive)
2,CC(NC(=O)CCNC(=O)c1ccc(Cl)cc1)c1ccc(F)cc1 (centres undefined),3.42% (inactive)
3,NCCC(=O)N[C@@H]1CCCc2ccccc21,1.1% (inactive)
4,O=C(O)c1ccccc1OCc1ccccc1Br,0% (inactive)
5,O=C(CNC(=O)c1ccc(Cl)cc1)N[C@@H]1CCCc2ccccc21,1.65% (inactive)
6,N#Cc1ccc(C(=O)NCCC(=O)N[C@@H]2CCCc3ccccc32)cc1,0.711% (inactive)
7,O=C(NC1CCc2ccccc21)C1CCCN(C(=O)c2ccc(Cl)cc2)C1 (centres undefined),1.16% (inactive)
8,O=C(O)c1cccnc1Nc1ccc(Cl)cc1,85% (inactive)
9,O=C(CNC(=O)c1ccc(Cl)c(Cl)c1)N[C@@H]1CCCc2ccccc21,1.68% (inactive)
10,Cc1cccc(C(=O)NCCC(=O)NC2CCCc3ccccc32)c1 (centres undefined),1.09% (inactive)
11,O=C(CCNC(=O)c1ccccc1)N[C@@H]1CCCc2ccccc21,1.8% (inactive)
12,O=C(CCCNC(=O)c1ccc(C(F)(F)F)cc1)N[C@@H]1CCCc2ccccc21,2.46% (inactive)
13,O=C(CCNC(=O)c1ccc(Cl)cc1)N[C@@H]1CCc2ccccc21,6% (inactive)
14,Cc1ccc(C)c(OCCn2cc(C(=O)O)c3ccccc32)c1,0% (inactive)
15,O=C(NC1CCOc2ccccc21)C1CCCN(C(=O)c2ccc(Cl)cc2)C1 (centres undefined),0.843% (inactive)

# Test system: U937 myeloid differentiation, MAC1 flow cytometry, 4 d
# Experiment: as above
# Details: not given
row,EC50,Compound
1,7.94 µM,O=C(CCNC(=O)c1cccc(Cl)c1)N[C@@H]1CCCc2ccccc21
2,4.21 µM,Cc1ccc(C(=O)NCCC(=O)N[C@@H]2CCCc3ccccc32)cc1
3,4.57 µM,O=C(CCNC(=O)c1ccc(Cl)cc1)NC1CCCc2ccccc21 (centres undefined)
4,3.4 µM,O=C(CCNC(=O)c1ccc(Cl)c(Cl)c1)N[C@@H]1CCCc2ccccc21
5,2.26 µM,O=C(CCNC(=O)c1ccc(C(F)(F)F)cc1)N[C@@H]1CCCc2ccccc21
6,4.41 µM,O=C(CCNC(=O)c1ccc2c(c1)OC(F)(F)O2)N[C@@H]1CCCc2ccccc21
7,2.07 µM,O=C(CCNC(=O)c1ccc(OC(F)(F)F)cc1)N[C@@H]1CCCc2ccccc21
8,2.78 µM,O=C(CCNC(=O)c1ccc(Cl)cc1)N[C@@H]1CCCc2ccccc21
